Experimental data from patent publication US20050256210A1, “Compounds with activity at estrogen receptors” (priority 2004, published 2005).
Where two headings read alike, the source gives them in different places.

Legend:
[1] = biological target: T1, Estrogen receptor beta (ERβ) (Homo sapiens, UniProt Q92731); assay: Receptor Selection and Amplification Technology (R-SAT) functional receptor assay, ERβ; type: cell-based
T1 construct: expressed in transfected cells; host or cells: NIH3T3
Experimental: NIH3T3 cells were grown in roller bottles to 70-80% confluence. Cells were then transfected for 12-16 h with plasmid DNAs using Polyfect (Qiagen Inc.) as per the manufacturer's protocol. R-SAT assays were typically performed by transfecting 30 ug/bottle of receptor and 50 ug/bottle of β-galactosidase plasmid DNA. All receptor and helper constructs used were in mammalian expression vectors. Helpers are defined as signaling molecules that modulate both ligand-dependent and/or ligand-independent function of the ER receptors, typically co-activators and kinases. NIH3T3 cells were transfected for 12-16 h, then trypsinized and frozen in DMSO. Frozen cells were later thawed, plated at 10,000-40,000 cells per well of a 96 well plate containing 4-(1-Phenyl-cyclohexyl)-phenol. Cells were then grown in a humidified atmosphere with 5% ambient CO2 for five days. Media was then removed from the plates and marker gene activity was measured by the addition of the β-galactosidase substrate o-nitrophenyl β-D-galactopyranoside (ONPG, in PBS with 5% NP-40). […] All data were analyzed using the computer program XLFit (IDBSm).

[2] = biological target: T2, Estrogen receptor alpha (ERα) (Homo sapiens, UniProt P03372); assay: Receptor Selection and Amplification Technology (R-SAT) functional receptor assay, ERα; type: cell-based; details: for Emax / % Efficacy ERα: NIH3T3 cells, efficacy relative to the reference ligand Estrone; for EC50 / pEC50 ERα: transfected NIH3T3 cells, agonist activity
T2 construct: expressed in transfected cells; host or cells: NIH3T3
T2 sequence (P03372 1-595): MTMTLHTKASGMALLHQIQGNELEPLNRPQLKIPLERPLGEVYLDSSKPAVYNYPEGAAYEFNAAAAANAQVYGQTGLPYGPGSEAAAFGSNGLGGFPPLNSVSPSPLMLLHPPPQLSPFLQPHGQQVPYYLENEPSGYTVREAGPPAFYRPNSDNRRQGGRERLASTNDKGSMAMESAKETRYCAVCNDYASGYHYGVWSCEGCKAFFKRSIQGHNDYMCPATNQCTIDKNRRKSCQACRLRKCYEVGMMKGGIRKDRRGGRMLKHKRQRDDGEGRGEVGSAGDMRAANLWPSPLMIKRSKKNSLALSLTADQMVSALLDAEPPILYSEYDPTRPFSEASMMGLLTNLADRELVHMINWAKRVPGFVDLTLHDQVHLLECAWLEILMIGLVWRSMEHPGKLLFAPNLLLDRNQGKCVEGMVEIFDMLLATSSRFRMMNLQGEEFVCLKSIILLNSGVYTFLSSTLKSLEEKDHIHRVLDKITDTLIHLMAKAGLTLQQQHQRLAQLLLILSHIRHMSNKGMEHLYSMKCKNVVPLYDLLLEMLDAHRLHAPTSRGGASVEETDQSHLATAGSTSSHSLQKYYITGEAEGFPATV
Experimental: The functional receptor assay, Receptor Selection and Amplification Technology (R-SAT™), was used with minor modifications from the procedure described in U.S. Pat. No. 5,707,798, which is hereby incorporated by reference in its entirety, to screen compounds for efficacy at the Estrogen receptors alpha and beta (ERα, ERβ). NIH3T3 cells were grown in roller bottles to 70-80% confluence. Cells were then transfected for 12-16 h with plasmid DNAs using Polyfect (Qiagen Inc.) as per the manufacturer's protocol. R-SAT assays were typically performed by transfecting 30 ug/bottle of receptor and 50 ug/bottle of β-galactosidase plasmid DNA. All receptor and helper constructs used were in mammalian expression vectors. Helpers are defined as signaling molecules that modulate both ligand-dependent and/or ligand-independent function of the ER receptors, typically co-activators and kinases. NIH3T3 cells were transfected for 12-16 h, then trypsinized and frozen in DMSO. Frozen cells were later thawed, plated at 10,000-40,000 cells per well of a 96 well plate containing 4-(1-Phenyl-cyclohexyl)-phenol. Cells were then grown in a humidified atmosphere with 5% ambient CO2 for five days. Media was then removed from the plates and marker gene activity was measured by the addition of the β-galactosidase substrate o-nitrophenyl β-D-galactopyranoside (ONPG, in PBS with 5% NP-40). The resulting colorimetric reaction was measured in a spectrophotometric plate reader (Titertek Inc.) at […]. All data were analyzed using the computer program XLFit (IDBSm).
These experiments provided a molecular profile, or fingerprint, for each agent tested at the human Estrogen receptors.

[3] = test system: immature female Sprague-Dawley rats; assay: Uterotrophic in vivo assay (uterine weight); parameters: species or system rat; details: 10, 30 or 100 mg/kg s.c. daily for 3 days; FIG. 4
Experimental: The effect of ERB-002 on uterine weight was assessed based on the previously published method of Harris et al., Endocrin, 2003, 143:4172, which is hereby incorporated by reference in its entirety. Naïve, female Sprague-Dawley rats (30-40 g; n=6 per group) served as subjects. Rats received daily subcutaneous injections of vehicle (100% DMSO), PPT (1.0 mg/rat)), a reportedly selective ERα agonist (Stauffer, 2000, J Med Chem 43:4934) or various doses of ERB-002 (10, 30 or 100 mg/kg) for a total of 3 days. Approximately 24 hours after the final injection, the rats were sacrificed, the uteri removed, trimmed of adhesions, fluid expelled and then weighed. Uterine weight was normalized as a percentage of total body weight by the following formula: % TBW=[(uterus weight (in mg)[…])/(body weight (in g))]*100.

male Sprague-Dawley rats = assay: CFA induced arthritis rat model assay (hot plate latency, paw thickness); type: in vivo; details: 1.0, 3.0 or 10 mg/kg s.c. daily from Day 4 after CFA
Experimental: Naïve, male Sprague-Dawley rats (225-250 g; n=6 per group) served as subjects. Response latencies to a noxious thermal stimulus were measured using the 52° C. hot plate test. After obtaining baseline responses, 0.1 ml of Freund's complete adjuvant (CFA) or vehicle (inactivated CFA (iCFA)) was injected into the dorsal surface of the left hind paw. Response latencies were again measured 4 days following CFA (or iCFA) administration, a time point when thermal hyperalgesia is stable. A significant decrease in the hot plate latency was interpreted as the presence of thermal hyperalgesia. Following testing, thickness of both hind paws were measured (using a micrometer) in order to quantify possible edema formation at the injection site. Various doses of 4-(1-Phenyl-cyclohexyl)-phenol (ERB-002) (1.0, 3.0 or 10 mg/kg) or vehicle (DMSO) were administered (s.c.) following testing on Day 4, and then daily following testing for a period of 3 days.

[4] = R-SAT, NIH3T3 cells, efficacy relative to the reference ligand Estrone, read-out: % Efficacy ERβ
[5] = R-SAT, transfected NIH3T3 cells, agonist activity, read-out: pEC50 ERβ (converted)
[6] = R-SAT, NIH3T3 cells, efficacy relative to the reference ligand Estrone
[7] = R-SAT, transfected NIH3T3 cells, agonist activity

T1 sequence (Q92731 whole entry): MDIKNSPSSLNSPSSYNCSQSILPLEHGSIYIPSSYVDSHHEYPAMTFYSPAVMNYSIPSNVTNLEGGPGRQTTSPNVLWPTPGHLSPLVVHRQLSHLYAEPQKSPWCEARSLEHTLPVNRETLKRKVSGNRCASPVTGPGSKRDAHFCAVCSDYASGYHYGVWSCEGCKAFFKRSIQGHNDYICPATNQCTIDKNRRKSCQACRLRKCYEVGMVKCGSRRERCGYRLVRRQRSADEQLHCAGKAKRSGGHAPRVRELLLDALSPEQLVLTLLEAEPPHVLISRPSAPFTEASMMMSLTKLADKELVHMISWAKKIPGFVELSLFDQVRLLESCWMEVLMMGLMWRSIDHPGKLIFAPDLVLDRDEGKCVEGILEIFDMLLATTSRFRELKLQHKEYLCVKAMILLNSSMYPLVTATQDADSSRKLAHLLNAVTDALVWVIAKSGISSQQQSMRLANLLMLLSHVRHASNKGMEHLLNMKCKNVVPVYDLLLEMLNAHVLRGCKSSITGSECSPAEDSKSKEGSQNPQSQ

`Oc1ccc(C2(c3ccccc3)CCC(C(F)(F)F)CC2)cc1` (stereo not shown) [ERB-030, 4-(1-Phenyl-[4-(trifluoromethyl)-cyclohexyl])-phenol] was tested, and the Emax [1, 4] was 46%, the EC50 [1, 5] was 63.1 nM and the Emax [2] was 95%. It also gave an EC50 [2] of 2510 nM.
For `Oc1ccc(C2(c3ccc(F)c(F)c3)CCCCC2)cc1` [ERB-009], the “% Efficacy ERβ” value [1, 6] was 138%, the “pEC50 ERβ” value [1, 7] was 7.2 and the “% Efficacy ERα” value [2] was 100%. The “pEC50 ERα” value [2] was 5.4.
With `Oc1ccc(C2(c3ccc(F)cc3)CCCCCC2)cc1O` [ERB-014, 4-[1-(4-Fluoro-phenyl)-cycloheptyl]-benzene-1,2-diol] the Emax [1, 4] was 87%, the EC50 [1, 5] was 79.4 nM and the Emax [2] was 120%. It also gave an EC50 [2] of 1260 nM.
For `CC(C)C1CCC(c2ccc(O)cc2)(c2cccc(F)c2)CC1` (stereo not shown) [ERB-037, 4-[1-(3-Fluoro-phenyl)-4-isopropyl-cyclohexyl]-phenol], the Emax [1, 4] was 48%, the EC50 [1, 5] was 7.94 nM and the Emax [2] was 114%. It also gave an EC50 [2] of 1580 nM.
In the case of `Oc1ccc(C2(c3ccccc3)CCCCCC2)cc1` [ERB-012, 4-(1-Phenyl-cycloheptyl)-phenol], the Emax [1, 4] is reported as 41%, the EC50 [1, 5] is reported as 126 nM and the Emax [2] is reported as 69%. The EC50 [2] was 631 nM.
In the case of `Oc1ccc(C2(c3ccc(F)cc3)CCC(C(F)(F)F)CC2)cc1` (stereo not shown) [ERB-031, 4-(1-(4-Flourophenyl)-[4-(trifluoromethyl)-cyclohexyl])-phenol], the “% Efficacy ERβ” value [1, 6] is reported as 62%, the “pEC50 ERβ” value [1, 7] is reported as 6.1 and the “% Efficacy ERα” value [2] is reported as 124%. For the same compound, the “pEC50 ERα” value [2] was 5.6.
In the case of `Oc1ccc(C2(c3ccccc3)CCCCCCC2)cc1` [ERB-017, 4-(1-Phenyl-cyclooctyl)-phenol], the Emax [1, 4] is reported as 46%, the EC50 [1, 5] is reported as 6.31 nM and the Emax [2] is reported as 80%. The EC50 [2] was 251 nM.
In the case of `Oc1ccc(C2(c3ccc(F)cc3F)CCCCC2)cc1` [ERB-011, 4-(1-(2,4-Difluoro-phenyl)-cyclohexyl)-phenol], the Emax [1, 4] is reported as 37%, the EC50 [1, 5] is reported as 79.4 nM and the Emax [2] is reported as 20%. For the same compound, the EC50 [2] was > 10000 nM.
`Oc1ccc(C2(c3ccccc3)CCCCC2)cc1` [ERB-002, 4-(1-Phenylcyclohexyl)phenol] was tested, and the EC50 [1] was 63.1 nM, the Emax ([1]; NIH3T3, read-out: % Efficacy ERβ) was 85% and the “selectivity of activation of ERβ relative to ERα” value ([1]; R-SAT, Table 1 and FIG. 1) was “selectively activates Estrogen beta receptor (ERβ) relative to the Estrogen alpha receptor (ERα)”. For the same compound, the “uterotrophic properties (uterine weight as % of total body weight)” value [3] was “does not display uterotrophic properties”, the Emax [2] was 50% and the EC50 [2] was 3160 nM. The “reversal of thermal hyperalgesia (52° C. hot plate latency)” value (male Sprague-Dawley rats; FIG. 2) was “dose dependent reversal of thermal hyperalgesia” and the “reversal of edema (paw thickness)” value (male Sprague-Dawley rats; FIG. 3) was “dose dependent reversal of edema”.
